Measured values taken from article PMC6934184, “Selective DNA-PKcs inhibition extends the therapeutic index of localized radiotherapy and chemotherapy” (The Journal of Clinical Investigation, 2019).

Target: T1, MARK1 (MARK) (Homo sapiens, UniProt Q9P0L2)
T1 construct: purchased Thermo Fisher Scientific (Life Technologies) SelectScreen
Test: SelectScreen Z'LYTE
Type: biochemical
How it was run: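 Percent values come from Thermo SelectScreen profiling of NU5455, combining activity and binding assays. CSF1R was run in Z'LYTE format at Km app ATP, and CAMK1 in Adapta format with ATP listed at 10.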

T1 sequence (Q9P0L2 whole entry): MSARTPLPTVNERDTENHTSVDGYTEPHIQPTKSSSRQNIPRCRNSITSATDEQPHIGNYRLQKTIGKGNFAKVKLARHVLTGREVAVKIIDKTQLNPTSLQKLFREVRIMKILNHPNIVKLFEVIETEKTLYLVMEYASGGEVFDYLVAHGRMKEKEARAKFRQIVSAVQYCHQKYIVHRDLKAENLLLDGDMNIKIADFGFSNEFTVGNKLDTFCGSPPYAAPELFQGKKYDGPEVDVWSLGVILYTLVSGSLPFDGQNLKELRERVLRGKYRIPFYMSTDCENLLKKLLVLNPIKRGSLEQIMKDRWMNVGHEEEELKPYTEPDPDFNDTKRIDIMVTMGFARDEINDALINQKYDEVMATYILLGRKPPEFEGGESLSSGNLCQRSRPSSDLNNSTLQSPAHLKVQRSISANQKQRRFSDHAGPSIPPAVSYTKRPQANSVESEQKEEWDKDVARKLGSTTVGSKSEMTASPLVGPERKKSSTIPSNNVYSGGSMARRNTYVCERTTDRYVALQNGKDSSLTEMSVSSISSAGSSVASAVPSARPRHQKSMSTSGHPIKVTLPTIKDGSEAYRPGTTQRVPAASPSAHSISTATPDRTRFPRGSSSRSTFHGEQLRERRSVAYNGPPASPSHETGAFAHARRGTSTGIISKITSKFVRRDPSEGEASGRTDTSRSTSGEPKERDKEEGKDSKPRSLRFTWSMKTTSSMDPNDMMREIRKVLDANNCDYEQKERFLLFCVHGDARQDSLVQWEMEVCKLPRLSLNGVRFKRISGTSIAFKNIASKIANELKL

CN(C(=O)CN1CCOCC1)c1ccc2sc3c(-c4cccc5c(=O)cc(N6CC7CCC(C6)O7)oc45)cccc3c2c1 [NU5455] gave an inhibition at 1 µM of 5.1%.
